Measurements from ChEMBL document CHEMBL4602638, “Propargylglycine-based antimicrobial compounds are targets of TolC-dependent efflux systems in Escherichia coli” (Bioorg Med Chem Lett, 2020).
Values after ≈ are worked out from the molar mass of the structure shown. Active and inactive are the calls of the source. The calls are words filed in the database; no cut-off is given here.

Columns and labels:
[1] = biological target: T1, UDP-3-O-acyl-N-acetylglucosamine deacetylase (Escherichia coli K-12) (UniProt P0A725); test: Inhibition of LpxC in Escherichia coli expressing deltaCdelta4LFhuA and harboring deltaTolC mutant assessed as reduction in bacterial growth measured after 20 hrs by CLSI protocol based microbroth dilution method
T1 sequence (whole entry): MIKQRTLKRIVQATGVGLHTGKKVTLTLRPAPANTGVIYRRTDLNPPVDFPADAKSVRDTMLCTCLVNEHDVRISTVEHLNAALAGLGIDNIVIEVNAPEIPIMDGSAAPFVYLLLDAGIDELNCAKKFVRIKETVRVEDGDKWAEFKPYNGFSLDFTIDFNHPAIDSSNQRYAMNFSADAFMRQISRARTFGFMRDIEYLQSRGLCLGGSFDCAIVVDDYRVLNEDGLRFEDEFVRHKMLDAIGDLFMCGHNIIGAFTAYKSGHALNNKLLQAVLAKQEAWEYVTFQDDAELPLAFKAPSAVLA

[2] = biological target: T1, UDP-3-O-acyl-N-acetylglucosamine deacetylase (Escherichia coli K-12); test: Inhibition of LpxC in Escherichia coli expressing deltaCdelta4LFhuA and harboring deltaACRB mutant assessed as reduction in bacterial growth measured after 20 hrs by CLSI protocol based microbroth dilution method
[3] = Lipophilicity, logP of compound; type: physicochemical; conditions: octanol/water
[4] = biological target: T1, UDP-3-O-acyl-N-acetylglucosamine deacetylase (Escherichia coli K-12); test: Inhibition of LpxC in Escherichia coli harboring deltaACRB mutant assessed as reduction in bacterial growth measured after 20 hrs by CLSI protocol based microbroth dilution method
[5] = biological target: T1, UDP-3-O-acyl-N-acetylglucosamine deacetylase (Escherichia coli K-12); test: Inhibition of LpxC in Escherichia coli assessed as reduction in bacterial growth at 80 ug/ml measured after 20 hrs by CLSI protocol based microbroth dilution method
[6] = biological target: T1, UDP-3-O-acyl-N-acetylglucosamine deacetylase (Escherichia coli K-12); test: Inhibition of LpxC in Escherichia coli expressing deltaCdelta4LFhuA assessed as reduction in bacterial growth at 80 ug/ml measured after 20 hrs by CLSI protocol based microbroth dilution method
[7] = biological target: T1, UDP-3-O-acyl-N-acetylglucosamine deacetylase (Escherichia coli K-12); test: Inhibition of LpxC in Escherichia coli harboring deltaTolC mutant assessed as reduction in bacterial growth measured after 20 hrs by CLSI protocol based microbroth dilution method
[8] = biological target: T1, UDP-3-O-acyl-N-acetylglucosamine deacetylase (Escherichia coli K-12); test: Inhibition of LpxC in Escherichia coli assessed as reduction in bacterial growth at 160 ug/ml measured after 20 hrs by CLSI protocol based microbroth dilution method
[9] = biological target: T2, UDP-3-O-acyl-N-acetylglucosamine deacetylase (Pseudomonas aeruginosa (strain ATCC 15692 / PAO1 / 1C / PRS 101 / LMG12228)) (UniProt P47205); test: Inhibition of LpxC in Pseudomonas aeruginosa assessed as delay in bacterial growth at 25 to 50 ug/ml measured after 20 hrs by CLSI protocol based microbroth dilution method
T2 sequence (whole entry): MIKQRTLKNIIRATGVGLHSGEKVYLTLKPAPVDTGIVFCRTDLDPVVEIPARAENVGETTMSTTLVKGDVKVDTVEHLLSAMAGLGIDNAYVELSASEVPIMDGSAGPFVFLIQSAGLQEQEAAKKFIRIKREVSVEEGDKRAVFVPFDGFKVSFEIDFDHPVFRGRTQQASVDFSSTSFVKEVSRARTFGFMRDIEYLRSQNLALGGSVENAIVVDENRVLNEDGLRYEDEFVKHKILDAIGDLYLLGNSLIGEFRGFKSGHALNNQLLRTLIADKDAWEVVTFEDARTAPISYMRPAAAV

[10] = biological target: T2, UDP-3-O-acyl-N-acetylglucosamine deacetylase (Pseudomonas aeruginosa (strain ATCC 15692 / PAO1 / 1C / PRS 101 / LMG12228)); test: Inhibition of LpxC in Pseudomonas aeruginosa assessed as reduction in bacterial growth measured after 20 hrs by CLSI protocol based microbroth dilution method
[11] = biological target: T1, UDP-3-O-acyl-N-acetylglucosamine deacetylase (Escherichia coli K-12); test: Inhibition of LpxC in Escherichia coli expressing deltaCdelta4LFhuA assessed as reduction in bacterial growth measured after 20 hrs by CLSI protocol based microbroth dilution method
[12] = biological target: T1, UDP-3-O-acyl-N-acetylglucosamine deacetylase (Escherichia coli K-12); test: Inhibition of LpxC in Escherichia coli assessed as reduction in bacterial growth measured after 20 hrs by CLSI protocol based microbroth dilution method

With C#CC[C@H](NC(=O)c1ccc(-c2ccccc2)cc1)C(=O)NO the inhibition [1] was “Active”, the inhibition [2] was “Active” and the logP [3] was 2.28. The MIC [4] was 32 µg/mL (≈ 104 µM), the inhibition [4] was “Dose-dependent effect” and the inhibition [5] was “inactive”. For the same compound, the inhibition [6] was “inactive” and the MIC [7] was 16 µg/mL (≈ 51.9 µM).
CC#CCOc1ccc(C(=O)N[C@H](C(=O)NO)C(C)(C)N)cc1 gave a logP [3] of 0.44.
O=C(N[C@@H](Cc1cn(C[C@H]2O[C@@H](n3ccc(=O)[nH]c3=O)[C@H](O)[C@@H]2O)nn1)C(=O)NO)c1ccc(-c2ccccc2)cc1 showed a logP [3] of -0.01.
For C#CC[C@H](NC(=O)c1ccc(OCC#CC)cc1)C(=O)NO, the inhibition [8] was “inactive”, the logP [3] was 1.29 and the inhibition [9] was “Active”. For the same compound, the MIC [4] was 80 µg/mL (≈ 266 µM), the MIC [10] was 100 µg/mL (≈ 333 µM) and the MIC [11] was 100 µg/mL (≈ 333 µM). For the same compound, the MIC [7] was 80 µg/mL (≈ 266 µM), the MIC [12] was greater than 160 µg/mL and the inhibition [12] was “Dose-dependent effect”.
In the case of N[C@@H](Cc1cn(C[C@H]2O[C@@H](n3ccc(=O)[nH]c3=O)[C@H](O)[C@@H]2O)nn1)C(=O)NO, the logP [3] is reported as -3.52.
Work on C#CC[C@H](NC(=O)c1ccccc1)C(=O)NO yielded a logP [3] of 0.61.
With CC#CCOc1ccc(C(=O)N[C@@H](Cc2cn(C[C@H]3O[C@@H](n4ccc(=O)[nH]c4=O)[C@H](O)[C@@H]3O)nn2)C(=O)NO)cc1 the logP [3] was -1.69.
